Measurements from patent publication US20230123856A1, “5-FLUORONICOTINAMIDE DERIVATIVES AND USES THEREOF” (Tenaya Therapeutics, Inc., priority 2019, published 2023).

Biological target: T1, HDAC6 (Homo sapiens, UniProt Q9UBN7)
T1 sequence (Q9UBN7 1-1215): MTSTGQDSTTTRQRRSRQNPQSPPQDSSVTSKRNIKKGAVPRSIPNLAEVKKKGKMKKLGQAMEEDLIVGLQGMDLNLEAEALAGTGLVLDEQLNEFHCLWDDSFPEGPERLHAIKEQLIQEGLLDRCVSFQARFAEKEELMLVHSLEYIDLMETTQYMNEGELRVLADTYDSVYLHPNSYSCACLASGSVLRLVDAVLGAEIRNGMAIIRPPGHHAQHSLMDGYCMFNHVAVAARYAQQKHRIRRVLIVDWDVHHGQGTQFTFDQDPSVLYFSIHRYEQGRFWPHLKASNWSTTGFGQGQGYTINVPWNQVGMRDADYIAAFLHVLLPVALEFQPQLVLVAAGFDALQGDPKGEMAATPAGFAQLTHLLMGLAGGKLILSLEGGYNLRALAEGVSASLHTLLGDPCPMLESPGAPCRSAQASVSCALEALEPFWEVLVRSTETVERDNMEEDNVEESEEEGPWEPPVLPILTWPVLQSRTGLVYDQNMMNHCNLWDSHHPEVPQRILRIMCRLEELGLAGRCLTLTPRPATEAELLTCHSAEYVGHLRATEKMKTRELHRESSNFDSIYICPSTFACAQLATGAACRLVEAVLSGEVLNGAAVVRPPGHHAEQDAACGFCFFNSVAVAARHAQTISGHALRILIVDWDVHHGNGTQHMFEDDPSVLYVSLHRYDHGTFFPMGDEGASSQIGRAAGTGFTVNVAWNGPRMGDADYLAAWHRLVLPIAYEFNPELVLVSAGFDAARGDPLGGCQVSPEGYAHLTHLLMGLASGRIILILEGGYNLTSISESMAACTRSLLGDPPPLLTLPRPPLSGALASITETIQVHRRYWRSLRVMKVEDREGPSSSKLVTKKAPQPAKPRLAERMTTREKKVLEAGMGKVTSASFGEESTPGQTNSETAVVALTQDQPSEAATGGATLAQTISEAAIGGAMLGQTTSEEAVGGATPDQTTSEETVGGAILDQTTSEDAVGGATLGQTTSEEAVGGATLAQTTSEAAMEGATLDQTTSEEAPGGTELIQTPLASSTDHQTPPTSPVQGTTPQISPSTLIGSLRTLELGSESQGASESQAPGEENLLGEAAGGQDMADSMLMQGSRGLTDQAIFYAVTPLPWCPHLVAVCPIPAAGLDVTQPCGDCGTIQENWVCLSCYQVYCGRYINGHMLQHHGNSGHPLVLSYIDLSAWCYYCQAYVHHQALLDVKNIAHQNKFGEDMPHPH
Experiment: Biochemical luminescent HDAC-Glo I/II assay, HDAC6
Conditions: recombinant HDAC6 protein, HDAC-Glo I/II luminescent substrate

O=C(NO)c1cnc(Cn2c(N3CCOCC3)nc3ccccc32)c(F)c1 [Compound I-54]
IC50: 80.3 nM

O=C(NO)c1cnc(Cn2ccc3cc(C(=O)NC4CC4)cnc32)c(F)c1 [Compound I-55, N-cyclopropyl-1-((3-fluoro-5-(hydroxycarbamoyl)pyridin-2-yl)methyl)-1H-pyrrolo[2,3-b]pyridine-5-carboxamide]
IC50: 3.88 nM

Cc1c(C)n(Cc2ncc(C(=O)NO)cc2F)c2ncccc12 [Compound I-51]
IC50: 1.94 nM

CN1CC[C@@H](Nc2ncc(C(=O)NO)cc2F)C1=O [Compound I-42B]
IC50: 41.7 nM

O=C(NO)c1cnc(N[C@@H]2CCNC2=O)c(F)c1 [Compound I-43B]
IC50: 25.7 nM

O=C(NO)c1cnc(NC2(c3ccccn3)CCC2)c(F)c1 [Compound I-37]
IC50: 2.18 nM

O=C(NO)c1cnc(OC2(c3ccccn3)COC2)c(F)c1 [III-2, 5-fluoro-N-hydroxy-6-{[3-(pyridin-2-yl)oxetan-3-yl]oxy}pyridine-3-carboxamide]
IC50: 14.6 nM

CO[C@H]1COC[C@@H]1Nc1ncc(C(=O)NO)cc1F [Compound I-38]
IC50: 5.67 nM

O=C(NO)c1cnc(Cn2c(C(F)(F)F)nc3ccccc32)c(F)c1 [Compound I-49]
IC50: 5.11 nM

COC(=O)N(Cc1ncc(C(=O)NO)cc1F)c1ncccc1O [Compound I-52]
IC50: 4.29 nM

O=C(NO)c1cnc(NC2(c3ncccn3)CC2)c(F)c1 [Compound I-46, 5-fluoro-N-hydroxy-6-((1-(pyrimidin-2-yl)cyclopropyl)amino)nicotinamide]
IC50: 29.2 nM

CN1CC[C@H](Nc2ncc(C(=O)NO)cc2F)C1=O [Compound I-42A]
IC50: 34.3 nM

Cc1cc2cccnc2n1Cc1ncc(C(=O)NO)cc1F [Compound I-50]
IC50: 2.98 nM

O=C(NO)c1cnc(NC2(C3CC3)CC2)c(F)c1 [Compound I-41]
IC50: 3.97 nM

O=C(NO)c1cnc(NC2(c3ncccc3F)CC2)c(F)c1 [Compound I-45, 5-fluoro-6-{[1-(3-fluoropyridin-2-yl)cyclopropyl]amino}-N-hydroxypyridine-3-carboxamide]
IC50: 6.51 nM

CCC1(Nc2ncc(C(=O)NO)cc2F)COC1 [Compound I-40]
IC50: 3.36 nM

O=C(NO)c1cnc(NC2(c3ccccn3)COC2)c(F)c1 [Compound I-56]
IC50: 7.67 nM

COCC1(Nc2ncc(C(=O)NO)cc2F)CC(F)(F)C1 [Compound I-39]
IC50: 1.12 nM

CN1Cc2ccccc2N(Cc2ncc(C(=O)NO)cc2F)C1=O [Compound I-47]
IC50: 4.36 nM

O=C(NO)c1cnc(Cn2c3c(c4ccccc42)S(=O)(=O)CC3)c(F)c1 [Compound I-48]
IC50: 2.27 nM

O=C(NO)c1cnc(N[C@H]2CCNC2=O)c(F)c1 [Compound I-43A]
IC50: 51.1 nM

COCCC1(Nc2ncc(C(=O)NO)cc2F)CC1 [Compound I-44]
IC50: 4.71 nM

Cc1nc2cccnc2n1Cc1ncc(C(=O)NO)cc1F [Compound I-53]
IC50: 8.69 nM
